Data published in publication PMC6458216, “In vitro reconstitution and characterisation of the oxidative D-xylose pathway for production of organic acids and alcohols” (AMB Express, 2019).

How the values were obtained:
Format in all cases: biochemical
Cc XylC = biological target: T1, Cc XylC (Caulobacter vibrioides, UniProt Q9A9Z1); test: CD ([…] nm) and 1H-NMR lactone ring-opening assay; details: CD: 1 mM lactone, 10 mM Tris-HCl pH 6-8, 25 °C; NMR: 2 mM lactone, pH 6.8, 22 °C, 100 µM metal ions or EDTA
T1 construct: full length, untagged (C-terminal Strep-tag II removed), synthetic codon-optimised gene in E. coli BL21(DE3), DEAE purified, mainly monomer

Ec FucO = biological target: T2, Ec FucO (Escherichia coli, UniProt P0A9S1); test: purified enzyme within 4-enzyme cascade, NADH oxidation at […] nm; details: glycolaldehyde formed by Ec YagE from 1 mM xylonolactone via cascade; 2 mM NADH, 50 mM Tris-HCl pH 7.0, 22 °C
T2 sequence (P0A9S1 1-382): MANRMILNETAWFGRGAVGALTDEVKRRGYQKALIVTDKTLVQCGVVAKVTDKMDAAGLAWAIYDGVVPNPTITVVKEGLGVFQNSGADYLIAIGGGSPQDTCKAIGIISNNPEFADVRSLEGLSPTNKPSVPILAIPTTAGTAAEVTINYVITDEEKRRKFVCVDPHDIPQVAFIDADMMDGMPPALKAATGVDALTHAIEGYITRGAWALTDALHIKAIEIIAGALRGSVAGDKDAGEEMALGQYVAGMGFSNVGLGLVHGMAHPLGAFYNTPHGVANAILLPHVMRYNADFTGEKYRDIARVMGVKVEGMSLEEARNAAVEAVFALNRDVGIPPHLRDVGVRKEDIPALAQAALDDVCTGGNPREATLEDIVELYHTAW

Ab AraE = Ab AraE (Azospirillum brasilense, UniProt Q1JUP4); test: NADH formation at […] nm, steady-state kinetics; details: 50 mM Tris-HCl pH 7.0, 2 mM NAD+, 1 mM DTT, glycolaldehyde 0-2 mM
Ec AldA = Ec AldA (Escherichia coli, UniProt P25553); test: NADH formation at […] nm, steady-state kinetics; details: 50 mM Tris-HCl pH 7.0, 2 mM NAD+, 1 mM DTT, glycolaldehyde 0-2 mM
Ec AldA, sequence (P25553 whole entry): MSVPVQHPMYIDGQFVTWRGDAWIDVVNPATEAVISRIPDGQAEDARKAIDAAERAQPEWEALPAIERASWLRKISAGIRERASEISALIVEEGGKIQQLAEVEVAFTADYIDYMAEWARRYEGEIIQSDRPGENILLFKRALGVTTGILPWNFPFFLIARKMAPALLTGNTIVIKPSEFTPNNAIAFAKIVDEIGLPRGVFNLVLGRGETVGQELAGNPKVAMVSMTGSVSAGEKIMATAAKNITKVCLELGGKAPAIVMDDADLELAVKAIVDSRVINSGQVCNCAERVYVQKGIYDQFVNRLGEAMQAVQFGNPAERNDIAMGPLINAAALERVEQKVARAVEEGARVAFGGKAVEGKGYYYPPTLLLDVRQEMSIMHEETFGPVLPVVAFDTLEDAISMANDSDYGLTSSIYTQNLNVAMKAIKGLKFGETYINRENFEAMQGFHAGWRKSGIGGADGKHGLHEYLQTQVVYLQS

Ab AraE, sequence (Q1JUP4 whole entry): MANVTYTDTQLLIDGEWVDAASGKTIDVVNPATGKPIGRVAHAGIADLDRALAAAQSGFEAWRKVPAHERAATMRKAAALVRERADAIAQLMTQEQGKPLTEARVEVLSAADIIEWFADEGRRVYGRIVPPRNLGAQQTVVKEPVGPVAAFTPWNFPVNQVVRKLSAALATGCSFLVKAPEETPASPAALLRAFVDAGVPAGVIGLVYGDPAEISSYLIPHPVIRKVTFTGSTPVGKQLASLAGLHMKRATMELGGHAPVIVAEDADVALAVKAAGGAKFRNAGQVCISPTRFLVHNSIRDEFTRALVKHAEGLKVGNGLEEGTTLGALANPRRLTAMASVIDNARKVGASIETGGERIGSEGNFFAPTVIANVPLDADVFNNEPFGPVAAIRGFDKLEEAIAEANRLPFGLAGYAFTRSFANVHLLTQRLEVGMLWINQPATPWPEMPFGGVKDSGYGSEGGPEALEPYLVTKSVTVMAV
T1 sequence (Q9A9Z1 whole entry): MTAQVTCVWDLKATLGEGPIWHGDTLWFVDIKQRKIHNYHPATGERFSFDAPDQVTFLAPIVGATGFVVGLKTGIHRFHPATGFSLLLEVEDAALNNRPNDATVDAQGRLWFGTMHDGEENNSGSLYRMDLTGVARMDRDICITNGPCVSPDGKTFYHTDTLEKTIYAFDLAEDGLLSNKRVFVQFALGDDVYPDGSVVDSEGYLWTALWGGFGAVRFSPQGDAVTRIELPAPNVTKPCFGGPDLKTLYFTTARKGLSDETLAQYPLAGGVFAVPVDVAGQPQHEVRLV

SMILES	CD (220 nm) and 1H-NMR lactone ring-opening assay (Cc XylC)	purified enzyme within 4-enzyme cascade, NADH oxidation at 340 nm (Ec FucO)	NADH formation at 340 nm, steady-state kinetics (Ab AraE)	NADH formation at 340 nm, steady-state kinetics (Ec AldA)
O=C1O[C@H](CO)[C@H](O)[C@H]1O [D-xylono-1,4-lactone]	Cc XylC was able to open the xylonolactone without addition of any metal	–	–	–
NC(=O)C1=CN([C@@H]2O[C@H](COP(=O)(O)OP(=O)(O)OC[C@H]3O[C@@H](n4cnc5c(N)ncnc54)[C@H](O)[C@@H]3O)[C@@H](O)[C@H]2O)C=CC1 [NADH]	–	the production of ethylene glycol was followed through generation of NAD^+	–	–
O=CCO [glycolaldehyde]	–	an increase of the enzyme concentration resulted in an increase in the production levels	we compare the glycolaldehyde dependent activity of Ec AldA and Ab AraE	we compare the glycolaldehyde dependent activity of Ec AldA and Ab AraE
